The values that follow come from patent US20230310537A1, “TREATMENT OF VASCULAR EHLERS-DANLOS SYNDROME AND RELATED SYNDROMES” (The Johns Hopkins University, priority 2020, published 2023).

Assay [1] deals with BL6 Col3a1^G938D/+ mice. The experiment in a line: Kaplan-Meier survival / vascular rupture of drug-treated BL6 vEDS mice. It counts as in vivo. The settings on record: for elevated risk of rupture caused by the p38 inhibitor, under concomitant treatment (Kaplan-Meier survival): BL6 Col3a1^G938D/+ mice receiving SB203580 IP plus test drug (cobimetinib via drinking water, ruboxistaurin via chow) from weaning for 30 days, vs SB203580 alone. The text has this:
Mice were maintained either on a C57BL/6J background (#000664, The Jackson Laboratory) or on a 129S6/SvEvTac background (#129SVE, Taconic Biosciences). Mice were considered to be 129S6/SvEvTac after backcrossing for a minimum of 4 generations. F1 and mixed mice were generated by interbreeding pure C57BL/6J and 129S6/SvEvTac mice. To identify the dominant genetic locus, mixed background wild-type females were bred to Col3a1^G938D/+ male mice on a pure BL6 background. Mice haploinsufficient or knockout for Map2k6 were originally obtained from the Jackson Laboratory (#008382) and backcrossed in the lab for a minimum of 10 generations. Restriction enzymes were used to detect the presence or absence of the Col3a1 mutation. The G209S mutation leads to the loss of an AvaII cut site and the G938D mutation leads to the gain of a BamHI cut site (AvaII R0153L; BamHI-HF R3136S, New England Biolabs). All mice found dead were assessed for cause of death by necropsy, noting in particular hemothorax and hemoperitoneum.
For drug trials in the Col3a1/^G938D/+ mice, mice were initiated on medication at weaning and continued until the end of the trial. Cobimetinib (GDC-0973/R0551404, Active Biochem) was dissolved in drinking water and filtered to reach a final concentration of 0.02 g/L giving an estimated dose of 2 mg/kg/day. Ruboxistaurin (LY333531 HCl, Selleck Chemicals) was mixed with powdered food (LabDiet) to give a concentration of 0.1 mg/g giving an estimated dose of 8 mg/kg/day. SB203580 (Selleck Chemicals) was administered at a dose of 5 mg/kg/d every 3 days by intraperitoneal injection. Animals receiving placebo (5% Tween in PBS) were also injected every 3 days by intraperitoneal injection.
Kaplan-Meier survival curves were compared using a log-rank (Mantel-Cox) test. Mice were censored only if unrelated to the outcome, such as for planned biochemical or histologic analysis or if the authors were directed to euthanize them by animal care staff, for malocclusion, fight wounds, or genital prolapse.

The test system of assay [2] is severe (Col3a1 G938D/+) and mild (Col3a1^G209S/+) mouse models of vEDS. The settings on record: either vEDS mouse model; interventions that inhibit PKC/ERK activation; cited from earlier work.
Assay [3] relates to MFS mice. The following applies: therapies that attenuate TGF-β signaling and related pathways; cited from earlier work.
Assay [4] relates to pPKCβ. The experiment in a line: Western blot of pPKCβ in proximal descending aortas of treated vEDS mice. The following applies: aortas of Col3a1^G938D/+ mice, SB203580 treated vs placebo treated; p<0.01. It counts as in vivo. As to the method: (§1) Protein was extracted using an automatic bead homogenizer in conjunction with a Protein Extraction Kit (Full Moon Biosystems). All protein lysis buffers contained both PhosSTOP and Complete™, Mini, EDTA-free Protease Inhibitor Cocktail (Roche). Western blotting was performed using LI-COR buffer and species appropriate secondary antibodies conjugated to IR-dye700 or IRdye-800 (LI-COR Biosciences), according to the manufacturer's guidelines and analyzed using LI-COR Odyssey. The following primary antibodies were used: anti-β-Actin (8H10D10) (Cell Signaling Technology, 3700), anti-phospho ERK1/2 (Cell Signaling Technology, 4370), anti-PKCβ (phospho 5660) (Abcam, 75837), anti-phospho p38 (Cell Signaling Technology, 4511).
(§2) For drug trials in the Col3a1/^G938D/+ mice, mice were initiated on medication at weaning and continued until the end of the trial. Cobimetinib (GDC-0973/R0551404, Active Biochem) was dissolved in drinking water and filtered to reach a final concentration of 0.02 g/L giving an estimated dose of 2 mg/kg/day. Ruboxistaurin (LY333531 HCl, Selleck Chemicals) was mixed with powdered food (LabDiet) to give a concentration of 0.1 mg/g giving an estimated dose of 8 mg/kg/day. SB203580 (Selleck Chemicals) was administered at a dose of 5 mg/kg/d every 3 days by intraperitoneal injection. […]
In general terms: In western blotting, separated proteins are transferred to a membrane and probed.

The test system of assay [5] is pERK1/2. The experiment in a line: Western blot of pERK1/2 in proximal descending aortas of treated vEDS mice. Format: in vivo. The settings on record: aortas of Col3a1^G938D/+ mice, SB203580 treated vs placebo treated; p<0.01. As to the method: as §1, §2

“Also recorded” adds a separate entry of the source.

Consider `O=C(c1ccc(F)c(F)c1Nc1ccc(I)cc1F)N1CC(O)([C@@H]2CCCCN2)C1` [cobimetinib], for which the “elevated risk of rupture caused by the p38 inhibitor, under concomitant treatment (Kaplan-Meier survival)” value in assay [1] is “rescued”. Also, the “aortic disease rupture risk” value in assay [2] is “rescue aortic disease rupture risk”.

On to `CCCCc1nc(Cl)c(CO)n1Cc1ccc(-c2ccccc2-c2nn[nH]n2)cc1` [losartan], for which the aortic disease result in assay [3] was “suppress aortic disease”.

`C[S+]([O-])c1ccc(-c2nc(-c3ccncc3)c(-c3ccc(F)cc3)[nH]2)cc1` (centres unmarked) [SB203580]: the “rate of death / vascular rupture risk (Kaplan-Meier survival vs placebo)” value in assay [1] (BL6 Col3a1^G938D/+ mice, IP injection every 3 days starting at weaning, continuing for 40 days, Log-Rank p<0.01) is “significantly increased the rate of death; also recorded: increases vascular rupture risk”. Moreover, in assay [4], the “PKC activation (pPKCβ levels normalized to β-actin)” value was “increase”. For the same molecule, the “ERK activation (pERK1/2 levels normalized to β-actin)” value in assay [5] is listed as “increase”.

For `CN(C)C[C@@H]1CCn2cc(c3ccccc32)C2=C(C(=O)NC2=O)c2cn(c3ccccc23)CCO1` [ruboxistaurin], the “elevated risk of rupture caused by the p38 inhibitor, under concomitant treatment (Kaplan-Meier survival)” value in assay [1] is listed as “rescued”. In addition, the “aortic disease rupture risk” value in assay [2] is “rescue aortic disease rupture risk”.
